Where “and” joins values, the source holds several entries; their conditions need not be identical. Equal values may be shown once. Read-outs that look alike come from different tables or passages of the source. Positions of bridges follow the written chain, without caps; N, C: chain ends. Non-standard residues stand in square brackets, D forms with d. Residues, ends and D or L forms follow the SMILES beside them. Groups on a side chain read outwards from the residue. *: point of attachment. X1 = O=C(COCC(=O)*)NCCOCCOCCOCCOCCOCCNC(=O)CO/N=C/c1ccc(F)cc1; X2 = NC(=O)COCC(=O)NCCOCCOCCOCCN*; dPhg = N[C@@H](C(=O)O)c1ccccc1; AEEA = NCCOCCOCC(=O)O; Mpa = O=C(O)CCS
Tests used:
[1] = target: T1, human αvβ8-Integrin (Homo sapiens, UniProt P06756+P26012); experiment: ELISA-like solid-phase binding assay, soluble integrin αvβ8 vs coated LAP (TGF-β); settings: referenced to internal standard
T1 construct: purchased R&D

[2] = target: α5β1 integrin (Homo sapiens, UniProt P05556+P08648); experiment: ELISA-like solid-phase binding assay, soluble integrin α5β1 vs coated fibronectin; design: purchased R&D
[3] = target: T2, human αvβ3-integrin (Homo sapiens, UniProt P05106+P06756); experiment: ELISA-like solid-phase binding assay, soluble integrin αvβ3 vs coated vitronectin; settings: for IC50: coated vitronectin, soluble integrin, referenced to internal standard
T2 construct: purchased R&D

[4] = target: T3, human αvβ5-integrin (Homo sapiens, UniProt P06756+P18084); experiment: ELISA-like solid-phase binding assay, soluble integrin αvβ5 vs coated vitronectin; settings: referenced to internal standard
T3 construct: purchased Millipore

[5] = target: T4, human αvβ6-Integrin (Homo sapiens, UniProt P06756+P18564); experiment: ELISA-like solid-phase binding assay, soluble integrin αvβ6 vs coated LAP (TGF-β); settings: for IC50: coated LAP, soluble integrin, referenced to internal standard
T4 construct: purchased R&D

[6] = target: T5, human platelet integrin αIIbβ3 (Homo sapiens, UniProt P05106+P08514); experiment: ELISA-like solid-phase binding assay, soluble integrin αIIbβ3 vs coated fibrinogen; settings: referenced to internal standard
T5 construct: purchased VWR

[7] = coated fibronectin, soluble integrin, referenced to internal standard, read-out: IC50 α5β1

T3 sequence (P06756 31-1048): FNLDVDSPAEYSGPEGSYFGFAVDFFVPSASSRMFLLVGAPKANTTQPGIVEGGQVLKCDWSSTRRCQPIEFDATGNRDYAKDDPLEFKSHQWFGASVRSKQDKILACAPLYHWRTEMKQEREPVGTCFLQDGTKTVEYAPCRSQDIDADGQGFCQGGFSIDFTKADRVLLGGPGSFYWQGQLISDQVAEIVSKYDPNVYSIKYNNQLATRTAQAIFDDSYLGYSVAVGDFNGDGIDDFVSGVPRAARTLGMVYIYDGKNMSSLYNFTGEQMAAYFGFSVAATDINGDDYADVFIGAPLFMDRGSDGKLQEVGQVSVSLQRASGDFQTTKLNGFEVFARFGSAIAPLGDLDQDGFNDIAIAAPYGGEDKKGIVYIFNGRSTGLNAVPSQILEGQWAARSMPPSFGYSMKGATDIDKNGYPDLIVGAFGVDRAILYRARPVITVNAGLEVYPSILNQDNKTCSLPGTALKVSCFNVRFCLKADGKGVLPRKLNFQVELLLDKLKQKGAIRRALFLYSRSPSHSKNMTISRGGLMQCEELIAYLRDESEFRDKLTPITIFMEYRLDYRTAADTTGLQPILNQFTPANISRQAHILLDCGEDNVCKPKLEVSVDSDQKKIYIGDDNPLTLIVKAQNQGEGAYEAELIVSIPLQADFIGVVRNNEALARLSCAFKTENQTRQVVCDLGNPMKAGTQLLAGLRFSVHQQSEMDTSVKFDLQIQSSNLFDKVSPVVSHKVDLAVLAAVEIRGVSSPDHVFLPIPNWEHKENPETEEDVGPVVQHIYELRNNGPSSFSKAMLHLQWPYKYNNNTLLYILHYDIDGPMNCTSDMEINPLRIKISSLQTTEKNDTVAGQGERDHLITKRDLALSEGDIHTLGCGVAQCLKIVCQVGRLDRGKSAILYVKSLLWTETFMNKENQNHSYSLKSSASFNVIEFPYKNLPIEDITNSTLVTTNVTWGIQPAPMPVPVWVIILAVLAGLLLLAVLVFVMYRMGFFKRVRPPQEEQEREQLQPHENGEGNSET
T3 sequence (P18084 24-799): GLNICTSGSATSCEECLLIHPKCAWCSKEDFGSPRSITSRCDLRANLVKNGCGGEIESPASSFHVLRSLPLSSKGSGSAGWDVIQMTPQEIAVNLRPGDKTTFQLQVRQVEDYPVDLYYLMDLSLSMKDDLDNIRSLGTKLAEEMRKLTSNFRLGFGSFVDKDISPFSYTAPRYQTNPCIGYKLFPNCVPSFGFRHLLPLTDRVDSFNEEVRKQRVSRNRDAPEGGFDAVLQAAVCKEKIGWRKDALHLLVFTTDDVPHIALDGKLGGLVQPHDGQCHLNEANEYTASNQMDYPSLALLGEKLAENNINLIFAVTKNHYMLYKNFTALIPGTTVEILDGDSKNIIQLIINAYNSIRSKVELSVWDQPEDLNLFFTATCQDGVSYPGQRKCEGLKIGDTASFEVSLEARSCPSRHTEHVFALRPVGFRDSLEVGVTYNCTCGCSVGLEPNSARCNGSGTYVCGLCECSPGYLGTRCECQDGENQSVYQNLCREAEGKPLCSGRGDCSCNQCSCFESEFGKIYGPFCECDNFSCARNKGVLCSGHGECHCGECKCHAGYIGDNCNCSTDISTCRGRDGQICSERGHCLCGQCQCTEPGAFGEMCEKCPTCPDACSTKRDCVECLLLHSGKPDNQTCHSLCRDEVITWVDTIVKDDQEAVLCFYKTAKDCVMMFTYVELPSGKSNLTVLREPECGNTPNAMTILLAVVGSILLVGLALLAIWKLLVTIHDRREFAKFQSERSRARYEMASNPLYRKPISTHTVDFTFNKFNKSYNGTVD
T5 sequence (P08514 32-1039): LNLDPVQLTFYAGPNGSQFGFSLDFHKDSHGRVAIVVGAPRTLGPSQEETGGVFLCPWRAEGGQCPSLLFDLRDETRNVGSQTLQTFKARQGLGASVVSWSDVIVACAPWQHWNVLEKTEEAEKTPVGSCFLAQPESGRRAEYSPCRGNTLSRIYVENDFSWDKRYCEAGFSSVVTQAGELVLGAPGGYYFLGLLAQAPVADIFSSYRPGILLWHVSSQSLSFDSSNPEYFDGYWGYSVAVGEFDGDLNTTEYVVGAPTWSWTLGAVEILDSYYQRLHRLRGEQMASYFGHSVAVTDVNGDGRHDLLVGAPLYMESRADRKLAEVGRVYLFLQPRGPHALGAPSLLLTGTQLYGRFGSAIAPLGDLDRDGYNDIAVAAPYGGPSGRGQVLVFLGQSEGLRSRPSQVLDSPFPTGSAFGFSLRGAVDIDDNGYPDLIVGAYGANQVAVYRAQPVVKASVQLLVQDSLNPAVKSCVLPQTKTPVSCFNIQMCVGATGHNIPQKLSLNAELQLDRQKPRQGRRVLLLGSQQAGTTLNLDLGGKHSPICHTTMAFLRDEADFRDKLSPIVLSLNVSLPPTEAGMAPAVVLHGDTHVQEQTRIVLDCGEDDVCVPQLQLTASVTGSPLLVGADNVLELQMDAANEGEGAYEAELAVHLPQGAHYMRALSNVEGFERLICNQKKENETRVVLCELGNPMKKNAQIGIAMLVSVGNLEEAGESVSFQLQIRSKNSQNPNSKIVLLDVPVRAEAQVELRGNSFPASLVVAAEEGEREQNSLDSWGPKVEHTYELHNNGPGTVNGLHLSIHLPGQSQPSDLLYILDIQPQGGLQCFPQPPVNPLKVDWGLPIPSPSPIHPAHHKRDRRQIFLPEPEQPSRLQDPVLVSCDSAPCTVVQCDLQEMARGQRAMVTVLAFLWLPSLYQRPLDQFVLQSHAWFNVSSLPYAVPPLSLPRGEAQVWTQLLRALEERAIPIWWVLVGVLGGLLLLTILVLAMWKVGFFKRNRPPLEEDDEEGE
T5 sequence (P05106 27-788): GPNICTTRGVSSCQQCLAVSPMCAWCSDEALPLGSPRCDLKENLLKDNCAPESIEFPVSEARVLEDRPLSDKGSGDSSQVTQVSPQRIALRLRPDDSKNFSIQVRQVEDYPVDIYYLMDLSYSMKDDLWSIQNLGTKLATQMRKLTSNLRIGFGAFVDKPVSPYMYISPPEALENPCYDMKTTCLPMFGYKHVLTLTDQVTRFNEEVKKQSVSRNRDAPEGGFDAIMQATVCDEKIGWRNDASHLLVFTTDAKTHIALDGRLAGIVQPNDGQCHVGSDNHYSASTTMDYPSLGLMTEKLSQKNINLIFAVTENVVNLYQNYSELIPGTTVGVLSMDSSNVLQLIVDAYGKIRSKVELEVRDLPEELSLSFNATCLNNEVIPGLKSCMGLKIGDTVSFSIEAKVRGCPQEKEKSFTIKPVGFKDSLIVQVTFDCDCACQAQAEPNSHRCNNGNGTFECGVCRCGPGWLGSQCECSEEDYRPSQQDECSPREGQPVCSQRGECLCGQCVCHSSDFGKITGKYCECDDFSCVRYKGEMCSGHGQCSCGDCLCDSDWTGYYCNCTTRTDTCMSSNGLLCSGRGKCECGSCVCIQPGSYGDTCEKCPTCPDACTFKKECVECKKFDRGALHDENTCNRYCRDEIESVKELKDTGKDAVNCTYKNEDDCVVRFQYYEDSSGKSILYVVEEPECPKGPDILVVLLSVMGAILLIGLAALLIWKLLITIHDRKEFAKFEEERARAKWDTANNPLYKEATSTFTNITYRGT

## NC(N)=NCCC[C@H](N)C(=O)NCC(=O)N[C@@H](CC(=O)O)C(=O)N[C@@H](CO)C(=O)O [RGDS]
[1]
  IC50: > 10 µM
[2]; [7]
  IC50: 181 ± 23 nM
[3]
  IC50: 45 ± 5 nM
[4]
  IC50: 433 ± 34 nM
[5]
  IC50: > 10000 nM

## CC(C)C[C@H](NC(=O)[C@H](CC(=O)O)NC(=O)CNC(=O)[C@H](CCCNC(=N)N)NC(=O)[C@H](CC(C)C)NC(=O)[C@H](CC(N)=O)NC(=O)[C@@H]1CCCN1C(=O)[C@@H](NC(=O)[C@H](C)NC(=O)[C@@H](N)CC(N)=O)C(C)C)C(=O)N[C@@H](CCC(N)=O)C(=O)N[C@H](C(=O)N[C@@H](CC(C)C)C(=O)N[C@@H](C)C(=O)N[C@@H](CCC(N)=O)C(=O)N[C@@H](CCCCN)C(=O)N[C@H](C(=O)N[C@@H](C)C(=O)N[C@@H](CCCNC(=N)N)C(=O)N[C@H](C(=O)O)[C@@H](C)O)C(C)C)C(C)C [A20FMDV2]
[2]
  IC50: > 10000 nM

## Cc1ccnc(NCCCC(=O)NCC(=O)NC(CC(=O)O)c2ccc(-c3cccc4ccccc34)cc2)c1 (centres unmarked) [Mol11*]
[1]
  IC50: 0.0185 ± 0.0043 µM
[2]; [7]
  IC50: 3020 ± 410 nM
[6]
  IC50: > 10 µM
[3]
  IC50: 13.2 ± 0.5 nM
[4]
  IC50: 530 ± 49 nM
[5]
  IC50: 1.3 nM and 1.32 nM

## N=C(N)NCCC[C@@H]1NC(=O)[C@H](CCCCN)NC(=O)[C@@H](Cc2ccc(O)cc2)NC(=O)[C@H](CC(=O)O)NC(=O)CNC1=O [c(RGDyK)]
[1]
  IC50: > 10 µM
[2]; [7]
  IC50: 236 ± 45 nM

## CC(=O)N1CCC[C@H]1C(=O)N[C@@H](Cc1c[nH]cn1)C(=O)N[C@@H](CO)C(=O)N[C@@H](CS)C(=O)N[C@@H](CC(N)=O)C(N)=O [ATN161, Ac-PHSCN-NH2] (Ac-PHSCN-NH2)
[1]
  IC50: > 10 µM
[2]; [7]
  IC50: 4.2 ± 0.5 nM
[6]
  IC50: > 10 µM
[3]
  IC50: > 10000 nM
[4]
  IC50: > 10000 nM
[5]
  IC50: 3130 ± 591 nM

## N=C(N)NCCC[C@@H]1NC(=O)[C@H](CCCCN)NC(=O)[C@@H](Cc2ccccc2)NC(=O)[C@H](CC(=O)O)NC(=O)CNC1=O [c(RGDfK)]
[1]
  IC50: 5.2 ± 0.67 µM
[2]; [7]
  IC50: 141 ± 15 nM
[6]
  IC50: > 10 µM
[4]
  IC50: 340 ± 24 nM

## N=C(N)NCCC[C@@H]1NC(=O)[C@H](CCCCNC(=O)CCOCCOCCOCCOCCOCCOCCNC(=O)CCS)NC(=O)[C@@H](Cc2ccccc2)NC(=O)[C@H](CC(=O)O)NC(=O)CNC1=O [c(RGDfK)-Peg-MPA]
[1]
  IC50: > 10 µM
[2]; [7]
  IC50: 201 ± 31 nM
[6]
  IC50: > 10 µM
[3]
  IC50: 15 ± 1.8 nM
[4]
  IC50: 390 ± 53 nM
[5]
  IC50: 422 ± 44 nM

## N=C(N)c1ccc(N2CCN(C3CCN(CC(=O)O)CC3)CC2)cc1 [GR144053, 4-[4-[4-(aminoiminomethyl)phenyl]-1-piperazinyl]-1-piperidineacetic acid]
[1]
  IC50: > 10 µM
[2]; [7]
  IC50: > 10000 nM
[6]
  IC50: 0.018 ± 0.0022 µM
[3]
  IC50: > 10000 nM
[4]
  IC50: > 10000 nM
[5]
  IC50: > 10000 nM

## N=C(N)NCCC[C@@H]1NC(=O)[C@@H]2CSSC[C@H](NC(=O)[C@H](CC(=O)O)NC(=O)CNC1=O)C(=O)N[C@@H](Cc1ccccc1)C(=O)N[C@H](C(=O)NCCOCCOCCOCCNC(=O)COCC(N)=O)CSCC(=O)N[C@@H](CCCCN)C(=O)N2 [NC100717] ({CH2CO}-KCRGDCFC-X2; disulfide 2-6; thioether N-8; N-terminus and C-terminus assumed)
[1]
  IC50: > 10 µM
[2]; [7]
  IC50: 820 ± 156 nM
[6]
  IC50: > 10 µM
[3]
  IC50: 1.1 ± 0.1 nM
[4]
  IC50: 16.7 ± 2.1 nM
[5]
  IC50: > 10000 nM

## N=C(N)NCCC[C@H](NC(=O)CN)C(=O)NCC(=O)N[C@@H](CC(=O)O)C(=O)O [GRGD] (H-GRGD-OH)
[1]
  IC50: > 10 µM
[2]; [7]
  IC50: 137 ± 14 nM
[6]
  IC50: > 10 µM
[3]
  IC50: 55 ± 7 nM
[4]
  IC50: 580 ± 23 nM
[5]
  IC50: > 10000 nM

## NCCCC[C@H](NC(=O)[C@@H]1CCCN1C(=O)[C@H](CO)NC(=O)[C@H](CC(=O)O)NC(=O)CNC(=O)[C@H](CCCN=C(N)N)NC(=O)CN)C(=O)O [GRGDSPK]
[1]
  IC50: > 10 µM
[2]; [7]
  IC50: 66 ± 6 nM
[6]
  IC50: > 10 µM
[3]
  IC50: 12.2 ± 0.1 nM
[4]
  IC50: 201 ± 32 nM
[5]
  IC50: 1030 ± 242 nM

## N=C(N)NCCC[C@H](NC(=O)CN)C(=O)NCC(=O)N[C@@H](CC(=O)O)C(=O)N[C@@H](CO)C(=O)O [GRGDS]
[2]; [7]
  IC50: 77 ± 8 nM

## N=C(N)NCCC[C@@H]1NC(=O)CNC(=O)C[C@@H](C(=O)O)NC(=O)[C@@H](c2ccccc2)NC(=O)[C@@H](CCCCNC(=O)COCCOCCNC(=O)CCS)NC1=O [c(phgisoDGRk)-Peg-MPA] (GR[dK]([AEEA-Mpa])[dPhg]D-OH; lactam N-5)
[1]
  IC50: > 10 µM
[2]; [7]
  IC50: 31 ± 3.4 nM
[2]; versus c(phgisoDGRk)
  fold change of α5β1 IC50-value after functionalization: 2 fold
[6]
  IC50: > 10 µM
[3]
  IC50: > 10000 nM
[4]
  IC50: > 10000 nM
[5]
  IC50: 52 ± 4.8 nM
[5]; versus c(phgisoDGRk)
  fold change of αvβ6 IC50-value after functionalization: 2 fold

## N=C(N)NCCC[C@H](N)C(=O)NCC(=O)N[C@@H](CC(=O)O)C(=O)O [RGD]
[1]
  IC50: > 10 µM
[6]
  IC50: > 10 µM
[3]
  IC50: 89 ± 12 nM
[4]
  IC50: 440 ± 65 nM
[5]
  IC50: > 10000 nM

## N=C(N)NCCC[C@@H]1NC(=O)[C@@H]2CSSC[C@H](NC(=O)[C@H](CC(=O)O)NC(=O)CNC1=O)C(=O)N[C@@H](Cc1ccccc1)C(=O)N[C@H](C(=O)NCCOCCOCCOCCNC(=O)COCC(N)=O)CSCC(=O)N[C@@H](CCCCNC(=O)COCC(=O)NCCOCCOCCOCCOCCOCCNC(=O)CO/N=C/c1ccc(F)cc1)C(=O)N2 [Flucilatide] ({CH2CO}-K(X1)CRGDCFC-X2; disulfide 2-6; thioether N-8; N-terminus and C-terminus assumed)
[3]; versus targeting unit NC100717
  fold change of αvβ3 IC50-value after functionalization: 3 fold

## C[C@H](N)C(=O)N[C@H]1CSSC[C@@H](C(=O)NCC(=O)O)NC(=O)[C@H](Cc2ccccc2)NC(=O)[C@@H]2CSSC[C@H](NC(=O)[C@H](CC(=O)O)NC1=O)C(=O)N[C@@H](CCCNC(=N)N)C(=O)NCC(=O)N[C@@H](CC(=O)O)C(=O)N2 [RGD-4C] (H-ACDCRGDCFCG-OH; disulfide 2-10, 4-8)
[1]
  IC50: > 10 µM
  IC50 αvβ8: no affinity
[2]; [7]
  IC50: 244 ± 37 nM
[6]
  IC50: > 10 µM
  IC50 αIIbβ3: no affinity
[3]
  IC50: 8.3 ± 2.1 nM
[4]
  IC50: 46 ± 11 nM
[5]
  IC50: 380 ± 44 nM

## N=C(N)NCCC[C@H](NC(=O)CN)C(=O)NCC(=O)N[C@@H](CC(=O)O)C(=O)N[C@@H](CC(N)=O)C(=O)N1CCC[C@H]1C(=O)O [GRGDNP] (H-GRGDNP-OH)
[1]
  IC50: > 10 µM
[2]; [7]
  IC50: 34 ± 3 nM
[6]
  IC50: > 10 µM
[3]
  IC50: 45 ± 12 nM
[4]
  IC50: 506 ± 120 nM
[5]
  IC50: > 10000 nM

## C[C@@H](O)[C@H](NC(=O)[C@H](CC(=O)O)NC(=O)CNC(=O)[C@H](CCCNC(=N)N)NC(=O)CN)C(=O)N1CCC[C@H]1C(=O)O [GRGDTP] (H-GRGDTP-OH)
[1]
  IC50: > 10 µM
[2]; [7]
  IC50: 84 ± 12 nM
[6]
  IC50: > 10 µM
[3]
  IC50: 28 ± 5 nM
[4]
  IC50: 423 ± 65 nM
[5]
  IC50: > 10000 nM

## CC(C)C[C@H](NC(=O)[C@H](CO)NC(=O)[C@H](CC(=O)O)NC(=O)[C@H](CC(C)C)NC(=O)[C@H](CC(=O)O)NC(=O)[C@@H](NC(=O)[C@@H](N)CCCNC(=N)N)[C@@H](C)O)C(=O)N[C@@H](CCCNC(=N)N)C(=O)N[C@H](C(=O)O)[C@@H](C)O
[1]
  IC50: 0.32 ± 0.025 µM
[2]; [7]
  IC50: > 10000 nM
[6]
  IC50: > 10 µM
[3]
  IC50: 6230 ± 540 nM
[4]
  IC50: > 10000 nM

## N=C(N)NCCC[C@@H]1NC(=O)CNC(=O)C[C@@H](C(=O)O)NC(=O)[C@@H](c2ccccc2)NC(=O)[C@@H](CCCCN)NC1=O [c(phgisoDGRk)] (GR[dK][dPhg]D-OH; lactam N-5)
[1]
  IC50: 0.077 ± 0.006 µM
[2]; [7]
  IC50: 9.43 ± 1.33 nM
[6]
  IC50: > 10 µM
[3]
  IC50: > 10000 nM
[4]
  IC50: > 10000 nM
[5]
  IC50: 18 ± 2.5 nM

## Echistatin
[1]
  IC50: 0.0128 ± 0.0025 µM
[2]; [7]
  IC50: 0.57 ± 0.19 nM
[6]
  IC50: 0.0009 ± 0.00024 µM
[3]
  IC50: 0.46 ± 0.14 nM
[4]
  IC50: 1.4 ± 0.2 nM

## CCCCS(=O)(=O)N[C@@H](Cc1ccc(OCCCCC2CCNCC2)cc1)C(=O)O [Tirofiban]
[1]
  IC50: > 10 µM
[2]; [7]
  IC50: > 10000 nM
[3]
  IC50: > 10000 nM
[4]
  IC50: > 10000 nM
[5]
  IC50: > 10000 nM

## N=C(N)NCCC[C@@H]1NC(=O)[C@H](CS)NC(=O)[C@@H](Cc2ccccc2)NC(=O)[C@H](CC(=O)O)NC(=O)CNC1=O [c(RGDfC)] (cyclo(RGD[dF]C))
[1]
  IC50: > 10 µM
[2]; [7]
  IC50: 215 ± 55 nM
[6]
  IC50: > 10 µM
[3]
  IC50: 6.3 ± 0.5 nM
[4]
  IC50: 433 ± 23 nM
[5]
  IC50: 121 ± 10 nM
